In brackets after ≈: the same amount, converted by molar mass. Read-outs that look alike come from different tables or passages of the source.
Columns and labels:
Staphylococcus aureus = test: Minimum inhibitory concentration, agar streak test on TGY agar (S. aureus); format: cell-based
Procedure: (§1) Minimum inhibitory concentrations for microorganisms. The F. equiseti NRRL 5537 antibiotic was diluted in ethanol. Streptomycin sulfate and isoniazid were diluted in water. Amounts up to 1 ml. were added to TGY agar to provide the desired double dilution test concentrations. Minimum inhibitory concentrations of the antimicrobial agents were determined by streaking a loopful of standardized suspensions of 24- to 48-hr. cultures of selected microorganisms onto the surface of 20 ml. of the modified TGY agar in a standard petri dish. Microorganisms were cultured on TGY agar slants and diluted with TGY broth to yield a transmittance of about 90% at 600 nm. in a Spectronic-20 spectrophotometer. All cultures grew on control plates containing 1 ml. ethanol per 100 ml. TGY agar. Bacteria were incubated at 37° C. and the fungi at room temperature.

Neisseria perflava = test: Minimum inhibitory concentration, agar streak test on TGY agar (N. perflava); format: cell-based; conditions: 37° C., 24 and 48 hr., read-out: Antimicrobial agent MIC
Procedure: as §1

gram-negative bacteria = test: Minimum inhibitory concentration, agar streak test on TGY agar (other gram-negative bacteria); format: cell-based; conditions: Neisseria perflava; tested gram-negative bacteria other than N. perflava; read-out: no inhibition at levels up to
Procedure: as §1

[1] = system: some gram-positive bacteria and N. perflava; test: Comparison of MIC of equisetin with streptomycin and isoniazid; format: cell-based; conditions: in vitro, tested bacteria
Procedure: as §1

mice = test: in vivo; design: species or system Swiss-Webster female mice; conditions: for r (Weil's procedure notation): n = 6, Da = 25 mg./kg.
Procedure: (§2) Animal toxicity. Chromatographically pure antibiotic was dissolved in warm propylene glycol and injected intraperitoneally into 25 g. Swiss-Webster female mice. The LD50 dose was calculated by Weil's procedure (supra) with the following notation: K = 3; n = 6; r = 0, 1, 6, 6; d = 0.3010; and Da = 25 mg./kg. body weight.

in vivo = test: in vivo; design: species or system Swiss-Webster female mice; conditions: mouse, in vivo, ip; intraperitoneal, propylene glycol, 25 g. Swiss-Webster female mice; read-out: intraperitoneal LD50 dose
Procedure: as §2

M. smegmatis = test: Minimum inhibitory concentration, agar streak test on TGY agar (M. smegmatis); format: cell-based; conditions: Mycolicibacterium smegmatis, NRRLB612, NRRL B-612, 37° C., 24 and 48 hr., read-out: Antimicrobial agent MIC
Procedure: as §1

[2] = format: physicochemical; conditions: for degradation peak, share of the sample: short columns (2 ft.)
Procedure: Gas-liquid chromatography of F. equiseti NRRL 5537 preparations was carried out on a Bendix Model 2500 chromatograph equipped with on-column flame ionization detectors. Retention times of the antibiotic and its degradation product were determined on glass columns (2 ft. × 2 mm. and 6 ft. × 2 mm.) packed with SE-30 (3%) on Supelcon AW-DMCS (Supelco, Inc.). Operating parameters were: temperature, 180° or 190° C. isothermally for 2-ft. columns and programmed from 180° to 220° C. at 5° C./min. for 6-ft. columns; carrier gas, nitrogen (40 ml./min.); hydrogen (20 ml./min.); air (400 ml./min.); injection ports and detectors, 250° C. Samples were dissolved in absolute ethanol (10 mg./ml.), and 2 μl. were used for analyses. Peak areas and retention times were obtained with a Hewlett/Packard Model 3370 B integrator.

physchem = format: physicochemical
Procedure: Melting points (uncorrected) were determined with a Fisher-Johns apparatus. Infrared spectra were obtained on a Beckman Model 1R-8 spectrophotometer from films deposited on KRS-5 plates (Wilks, Inc.) or from solutions in a 1-mm. sodium chloride cell. Mass spectra were obtained on a Nuclide high-resolution instrument Model 12-90G. Ultraviolet spectra were recorded from a Beckman DG-G with the absolute ethanol solutions of antibiotic at 25 μg./ml. Elemental analysis was carried out in a Perkin-Elmer CHN analyzer 240. Solubilities were measured by the procedure of Shriner et al. [The Systematic Identification of Organic Compounds. A Laboratory Manual, John Wiley and Sons., Inc., New York].

M. rhodochrus = test: Minimum inhibitory concentration, agar streak test on TGY agar (M. rhodochrus); format: cell-based; conditions: NRRL B-2141, 37° C., 24 and 48 hr., read-out: Antimicrobial agent MIC
Procedure: as §1

Mycobacterium phlei = test: Minimum inhibitory concentration, agar streak test on TGY agar (M. phlei); format: cell-based; conditions: Mycolicibacterium phlei
Procedure: as §1

Bacillus subtilis = test: Minimum inhibitory concentration, agar streak test on TGY agar (B. subtilis); format: cell-based
Procedure: as §1

fungi = test: Minimum inhibitory concentration, agar streak test on TGY agar (fungi); format: cell-based; conditions: tested fungi; room temperature; read-out: no inhibition at levels up to
Procedure: as §1

bacteria = conditions: cited from earlier work
[3] = NRRLB120, NRRL B-120, TGY agar, 37° C., 24 and 48 hr., read-out: Antimicrobial agent MIC
[4] = NRRLB124, NRRL B-124, TGY agar, 37° C., 24 and 48 hr., read-out: Antimicrobial agent MIC
[5] = NRRLB313, NRRL B-313, TGY agar, 37° C., 24 and 48 hr., read-out: Antimicrobial agent MIC
[6] = NRRLB678, NRRL B-678, TGY agar, 37° C., 24 and 48 hr., read-out: Antimicrobial agent MIC
[7] = NRRLB1317, NRRL B-1317, TGY agar, 37° C., 24 and 48 hr., read-out: Antimicrobial agent MIC
[8] = NRRLB1318, NRRL B-1318, TGY agar, 37° C., 24 and 48 hr., read-out: Antimicrobial agent MIC
[9] = NRRLB2746, NRRL B-2746, TGY agar, 37° C., 24 and 48 hr., read-out: Antimicrobial agent MIC
[10] = seven strains, read-out: concentration at which strains were inhibited
[11] = NRRLB1458, NRRL B-1458, TGY agar
[12] = NRRLB1788, NRRL B-1788, TGY agar
[13] = NRRLB1789, NRRL B-1789, TGY agar
[14] = NRRLB1790, NRRL B-1790, TGY agar
[15] = NRRLB1791, NRRL B-1791, TGY agar
[16] = 100 or 200 mg./kg. intraperitoneal
[17] = NRRLB609, NRRL B-609, TGY agar, 37° C., 24 and 48 hr., read-out: Antimicrobial agent MIC
[18] = NRRLB610, NRRL B-610, TGY agar, 37° C., 24 and 48 hr., read-out: Antimicrobial agent MIC
[19] = NRRLB4051, NRRL B-4051, TGY agar, 37° C., 24 and 48 hr., read-out: Antimicrobial agent MIC
[20] = NRRLB543, NRRL B-543, TGY agar, 37° C., 24 and 48 hr., read-out: Antimicrobial agent MIC
[21] = NRRLB558, NRRL B-558, TGY agar, 37° C., 24 and 48 hr., read-out: Antimicrobial agent MIC
[22] = NRRLB644, NRRL B-644, TGY agar, 37° C., 24 and 48 hr., read-out: Antimicrobial agent MIC
[23] = NRRLB765, NRRL B-765, TGY agar, 37° C., 24 and 48 hr., read-out: Antimicrobial agent MIC
[24] = NRRLB972, NRRL B-972, TGY agar, 37° C., 24 and 48 hr., read-out: Antimicrobial agent MIC
[25] = NRRLB1650, NRRL B-1650, TGY agar, 37° C., 24 and 48 hr., read-out: Antimicrobial agent MIC
[26] = NRRLB3284, NRRL B-3284, TGY agar, 37° C., 24 and 48 hr., read-out: Antimicrobial agent MIC

CC=CC1C=CC2CC(C)CCC2C1(C)C(O)=C1C(=O)C(CO)N(C)C1=O (stereo not shown) [equisetin]
MIC (Staphylococcus aureus; [3]): 1 µg/mL (≈ 0.00268 mM) | MIC (Staphylococcus aureus; [4]): 1 µg/mL (≈ 0.00268 mM) | MIC (Staphylococcus aureus; [5]): 0.5 µg/mL (≈ 0.00134 mM) | MIC (Staphylococcus aureus; [6]): 1 µg/mL (≈ 0.00268 mM) | MIC (Staphylococcus aureus; [7]): 1 µg/mL (≈ 0.00268 mM) | MIC (Staphylococcus aureus; [8]): 1 µg/mL (≈ 0.00268 mM) | MIC (Staphylococcus aureus; [9]): 1 µg/mL (≈ 0.00268 mM) | MIC (Staphylococcus aureus; [10]): ≤ 1 µg/mL | MIC (Neisseria perflava; [11]): 2 µg/mL (≈ 0.00535 mM) | MIC (Neisseria perflava; [12]): 2 µg/mL (≈ 0.00535 mM) | MIC (Neisseria perflava; [13]): 4 µg/mL (≈ 0.0107 mM) | MIC (Neisseria perflava; [14]): 1 µg/mL (≈ 0.00268 mM) | MIC (Neisseria perflava; [15]): 4 µg/mL (≈ 0.0107 mM) | MIC (gram-negative bacteria): > 128 µg/mL | comparison of minimum inhibitory concentrations with streptomycin and isoniazid [1]: a lower concentration of equisetin were required for the in vitro inhibition of the tested bacteria than was required for inhibition by streptomycin or isoniazid | visible ill effects in surviving mice (mice; 25- or 50-mg./kg. doses intraperitoneal, 4 wk. of observation): no visible ill effects | condition of mice (mice; [16]): lethargic | mortalities continued for, post-injection (mice; [16]): 4 da. | time of death (mice; [16]): death did not occur before the second day after treatment | r (Weil's procedure notation) (mice; first r, d = 0.3010 (25 mg./kg.)): 0 | r (Weil's procedure notation) (mice; fourth r, d = 0.3010 (200 mg./kg.)): 6 | lethal action (mice; intraperitoneal, mice): Lethal action was slow | r (Weil's procedure notation) (mice; second r, d = 0.3010 (50 mg./kg.)): 1 | r (Weil's procedure notation) (mice; third r, d = 0.3010 (100 mg./kg.)): 6 | LD50 (in vivo): 63 mg/kg | MIC (M. smegmatis): 8 µg/mL (≈ 0.0214 mM) | antibiotic converted to the degradation product ([2]; 6-ft. columns, 220° C.): almost half | degradation peak, share of the sample ([2]; 180° C.): 3% | degradation peak, share of the sample ([2]; 190° C.): 6-8% | solubility (physchem; acetone, organic solvent or mixture, read-out: solubility in acetone): > 660 mg/mL | solubility (physchem; ethanol, organic solvent or mixture, read-out: solubility in ethanol): > 330 mg/mL | solubility (physchem; methanol, organic solvent or mixture, read-out: solubility in methanol): > 220 mg/mL | solubility (physchem; organic solvent or mixture, hexane, insoluble, read-out: solubility in hexane): < 0.8 mg/mL | solubility (physchem; water, insoluble, read-out: solubility in water): < 0.3 mg/mL | MIC (M. rhodochrus): 0.5 µg/mL (≈ 0.00134 mM) | MIC (Mycobacterium phlei; [17]): 1 µg/mL (≈ 0.00268 mM) | MIC (Mycobacterium phlei; [18]): 1 µg/mL (≈ 0.00268 mM) | MIC (Mycobacterium phlei; [19]): 2 µg/mL (≈ 0.00535 mM) | MIC (Mycobacterium phlei; two of three strains, read-out: concentration at which strains were inhibited): ≤ 1 µg/mL | MIC (Bacillus subtilis; [20]): 0.5 µg/mL (≈ 0.00134 mM) | MIC (Bacillus subtilis; [21]): 0.5 µg/mL (≈ 0.00134 mM) | MIC (Bacillus subtilis; [22]): 0.5 µg/mL (≈ 0.00134 mM) | MIC (Bacillus subtilis; [23]): 0.5 µg/mL (≈ 0.00134 mM) | MIC (Bacillus subtilis; [24]): 0.5 µg/mL (≈ 0.00134 mM) | MIC (Bacillus subtilis; [25]): 1 µg/mL (≈ 0.00268 mM) | MIC (Bacillus subtilis; [26]): 1 µg/mL (≈ 0.00268 mM) | MIC (Bacillus subtilis; [10]): ≤ 1 µg/mL | MIC (fungi): > 128 µg/mL

[H]/N=C(/N)N[C@H]1[C@H](O)[C@@H](O)[C@H](O[C@@H]2O[C@@H](C)[C@](O)(C=O)[C@H]2O[C@@H]2O[C@@H](CO)[C@H](O)[C@@H](O)[C@@H]2NC)[C@@H](N/C(N)=N\[H])[C@@H]1O [Streptomycin]
MIC (Staphylococcus aureus; [3]): 2 µg/mL (≈ 0.00344 mM) | MIC (Staphylococcus aureus; [4]): 4 µg/mL (≈ 0.00688 mM) | MIC (Staphylococcus aureus; [5]): 2 µg/mL (≈ 0.00344 mM) | MIC (Staphylococcus aureus; [6]): 8 µg/mL (≈ 0.0138 mM) | MIC (Staphylococcus aureus; [7]): 4 µg/mL (≈ 0.00688 mM) | MIC (Staphylococcus aureus; [8]): 8 µg/mL (≈ 0.0138 mM) | MIC (Staphylococcus aureus; [9]): 2 µg/mL (≈ 0.00344 mM) | MIC (Neisseria perflava; [11]): 2 µg/mL (≈ 0.00344 mM) | MIC (Neisseria perflava; [12]): 2 µg/mL (≈ 0.00344 mM) | MIC (Neisseria perflava; [13]): 2 µg/mL (≈ 0.00344 mM) | MIC (Neisseria perflava; [14]): 2 µg/mL (≈ 0.00344 mM) | MIC (Neisseria perflava; [15]): 4 µg/mL (≈ 0.00688 mM) | MIC (M. smegmatis): 2 µg/mL (≈ 0.00344 mM) | MIC (M. rhodochrus): 2 µg/mL (≈ 0.00344 mM) | MIC (Mycobacterium phlei; [17]): 2 µg/mL (≈ 0.00344 mM) | MIC (Mycobacterium phlei; [18]): 2 µg/mL (≈ 0.00344 mM) | MIC (Mycobacterium phlei; [19]): 2 µg/mL (≈ 0.00344 mM) | MIC (Bacillus subtilis; [20]): 4 µg/mL (≈ 0.00688 mM) | MIC (Bacillus subtilis; [21]): 8 µg/mL (≈ 0.0138 mM) | MIC (Bacillus subtilis; [22]): 2 µg/mL (≈ 0.00344 mM) | MIC (Bacillus subtilis; [23]): 2 µg/mL (≈ 0.00344 mM) | MIC (Bacillus subtilis; [24]): 8 µg/mL (≈ 0.0138 mM) | MIC (Bacillus subtilis; [25]): 8 µg/mL (≈ 0.0138 mM) | MIC (Bacillus subtilis; [26]): 4 µg/mL (≈ 0.00688 mM)

C[C@H]1CCCC(=O)CCC/C=C/c2cc(O)cc(O)c2C(=O)O1 [zearalenone]
antibacterial properties (bacteria): either lack or only exhibit weak antibacterial properties

Source: US3959468A, “Antibiotic equisetin and method of production” (The United States of America as represented by the …, priority 1974, dated 1976)
